Bridge positions count the residues as written; N and C are the ends. Peptide text beside a SMILES is read from it. * marks the point of attachment. FITC = O=C1OC2(c3ccc(O)cc3Oc3cc(O)ccc32)c2ccc(NC(=S)*)cc21
How the values were obtained:
[1] = molecular target: ACA-6501 aPL antibody; assay: Competitive binding peptide-ELISA, plates coated with tetravalent peptide ACA-6501/3B10; parameters: species or system human; conditions: monomeric peptide, ACA-6501 serum
Excerpt: Once ELISA-positive peptides are identified, it is necessary to quantitate their relative binding affinity to the aPL antibodies and to determine whether or not two peptides bind the same population of antibodies in a given patient serum via a peptide-competition ELISA assay. In this assay, various monomeric peptides compete with tetravalent peptides coated on a microtitration plate well. To perform the assay, the peptides to be evaluated are synthesized as monomers, ie., without the lysine branches employed in the synthesis of the tetravalent peptides, using standard Fmoc chemistry. The monomeric peptides are then purified and dissolved at known concentrations. Wells of a microtitration plate are coated with a tetravalent peptide known to bind to the aPL antibody. Serial dilutions of the monomeric peptides are incubated with a constant dilution of the aPL antibody. The dilution of the aPL antibody was previously determined by titering the antibody against the tetravalent peptide and selecting a dilution on the downslope of the titration curve. After incubating the antibody and monomeric peptides for one hour, the antibody/peptide solutions are added to the microtitration wells and a standard […] ELISA is performed. The concentration of each monomeric peptide that decreases binding of the aPL antibody with the tetravalent peptide is determined by plotting the calorimetric readings obtained for each well. The 50% inhibition point is used as the measure of the relative strength of binding for the monomeric peptides.
(A) Each well of an Immulon II plate (Dynatech Laboratories, Inc., Chantilly Va.) was coated with 100 μL of a solution containing 10 μg tetravalent peptide ACA 6501/3B10 in 50 mM sodium carbonate, pH 9.5, containing 35 mM sodium bicarbonate (Fisher Scientific, Pittsburgh, Pa., reagent grade) for at least 1 hour at RT, except for three wells used as blank controls. […]

[2] = tested on: affinity-purified ACA-6501 aPL antibody; assay: Resin-bound peptide binding of affinity-purified IgG aPL antibody; parameters: species or system human; conditions: immunoconjugate color reaction, versus unrelated control peptide and normal IgG
Excerpt: Phage sequences obtained with affinity-purified ACA-6501 and found to be phage-ELISA-positive were synthesized on a solid support recently developed for combinatorial synthetic peptide libraries. This support, a Rapp resin, has a high peptide density and uses a hydrophilic polyethylene glycol spacer before the first amino acid is coupled. […] Similar results were obtained with the other phage-ELISA-positive peptides tested. In the experiment shown, resin peptide-bound affinity-purified ACA-6501 aPL antibody was detected by an immunoconjugate color reaction.

[3] = tested on: aPL sera; assay: Resin-bound peptide binding survey of patient sera; parameters: species or system human
Excerpt: Two peptides were selected for aPL sera testing, one (5A12) representing the ACA-6501 screen and another one (4D3) representing the ACA-6626 screen. […] However, a significant degree of crossreactivity was detectable especially between ACA-6501 and ACA-6626.

[4] = tested on: ACA-6501; assay: Phage-ELISA; format: binding, human; conditions: phage clones coated on wells, affACA-6501 2.5 μg/mL
Experimental: This method of selecting phage requires very tight binding of the insert to the screening antibody. Phage are directly coated onto wells of a microtitration plate and incubated with the screening antibody. Following washes to remove unbound antibody, an anti-human IgG alkaline phosphatase conjugate is added to bind any aPL antibodies bound to the phage. APL antibodies are then detected by adding a calorimetric substrate to the well which will react with alkaline phosphatase according to methods well known in the art.
Three mL cultures were prepared from 35 clones previously isolated with affinity purified ACA-6501 in several phage library screens as well as one fUSE 2 phage clone lacking a peptide insert which was used as a control. After centrifugation for 3 minutes at 17,000×g, 100 μL from each phage supernatant (adjusted to −2×10^11 particles/mL, based on absorbance) was added to microtitration plate wells (Falcon, Becton-Dickinson Labware, Lincoln Park, N.Y.) and allowed to incubate overnight at 4° C. Following four washes with TBS 7.4, the plate was blocked with 125 μL of 0.5% BSA/TBS for 1 hour at RT. After another four TBS washes, 100 μL of affACA-6501 previously diluted to 2.5 μg/mL in TBS/BSA was added to each well and allowed to incubate 1 hour at 37° C. Following an additional four washes, 100 μL anti-human IgG diluted 1:1000 in TBS/0.5% Tween was added to each well. After 1 hour at RT, enzyme substrate was added and the incubation allowed to proceed for 2 hours. Following the addition of 50 μL 0.2 M Na2HPO4 to stop the reaction, absorbance was measured at 550 nm in the automated plate absorbance reader. […] The sequences for these clones are showvn in Table 2.

[5] = molecular target: ACA-6501; assay: Direct binding fluorescence polarization binding assay (dbFP); parameters: species or system human
Excerpt: (§1) This assay detects direct binding of the peptide to aPL antibody. Since aPL antibodies bind to β2-GPI (the antigen), the ELISA competitive inhibition assay can show inhibition due to binding to β2-GPI as well inhibition due to binding of the peptide to the aPL antibody. Because binding to antibodies is required in order for the peptide to function as a Toleragen, it is essential to establish that a peptide can directly bind to an aPL antibody. This assay is used to determine the dissociation constants for peptides that bind to two aPL antibodies, ACA-6501 and ACA-6701. While the ELISA assay is useful for high throughput screening because it requires less antibody than the Fluorescence Polarization assay, however, ELISA-positive peptides should be further evaluated by the Fluorescence Polarization assay to determine whether they are capable of directly binding with aPL antibody.
The methodology is described in PanVera Application Guide (1994), PanVera Corporation. Briefly, a trace amount of fluorescein isothiocyanate (FITC) labeled peptide (CB2*-F) is titrated with antibody (ACA 6501 or 6701) and the polarization for the sample is plotted versus the antibody concentration. Polarization was measured with the PanVera Beacon instrument. Data were fitted to Equation 1. [formula] […]

[6] = molecular target: ACA-6701; assay: Direct binding fluorescence polarization binding assay (dbFP) and displacement kinetics; parameters: species or system human; conditions: for Kd: dbFP
Excerpt: as §1
The methodology is described in PanVera Application Guide (1994), PanVera Corporation. Briefly, a trace amount of fluorescein isothiocyanate (FITC) labeled peptide (CB2*-F) is titrated with antibody (ACA 6501 or 6701) and the polarization for the sample is plotted versus the antibody concentration. Polarization was measured with the PanVera Beacon instrument. Data were fitted to Equation 1. [formula]
where Y is the Y-axis value (milli-polarization units, mP), R is the total concentration of antibody receptor, PL is the polarization for free FITC-labeled peptide (F), and PH is the polarization for F complexed with R (FR). KD is the dissociation constant (reciprocal binding, constant) for F from the FR complex. For these equations to be valid, it must be true that F<<R. This titration is shown in FIGS. 22 and 23 for CB2*-F binding to ACA-6701 and ACA-6501 antibodies, respectively. […] Thus, CB2*-F binding to ACA-6701 is limited only by diffusion of these two molecules together.

## CC(C)C[C@@H]1NC(=O)[C@H](CC(C)C)NC(=O)[C@H](CC(C)C)NC(=O)[C@@H](NC(=O)[C@@H]2CCCN2)CSSC[C@@H](C(=O)N2CCC[C@H]2C(=O)NCC(=O)O)NC(=O)[C@H](CCCNC(=N)N)NC(=O)[C@H](CC(=O)O)NC(=O)[C@@H]2CCCN2C(=O)[C@H](C)NC1=O [peptide 139] (H-PCLLLAPDRCPG-OH; disulfide 2-10)
[1]
  amount of peptide producing 50% inhibition of binding of ACA-6501 aPL antibody to tetravalent peptide ACA-6501/3B10: 6.9 µg

## CC[C@H](C)[C@@H]1NC(=O)[C@H](CC(C)C)NC(=O)[C@@H](NC(=O)[C@@H]2CCCN2C(=O)CNC(=O)[C@H](C)N)CSSC[C@@H](C(=O)N2CCC[C@H]2C(=O)NCC(=O)O)NC(=O)[C@H](CCCNC(=N)N)NC(=O)[C@H](CC(=O)O)NC(=O)[C@@H]2CCCN2C(=O)[C@H](C)NC(=O)[C@H](CC(C)C)NC1=O [5A12, CLILAPDRC]
[2]
  binding of affinity-purified ACA-6501 to resin-bound peptide: dramatically outperformed an unrelated control peptide while not binding normal IgG
[3]; 13 pathologic sera
  pathologic sera (moderate to high GPL) with detectable peptide binding: 8 of the 13
[3]; 19 patient sera
  control sera (low or no GPL score) with low peptide binding: 2 out of 19
[4]
  signal in the phage-ELISA: significant signals

## CC(C)C[C@@H]1NC(=O)[C@H](CC(C)C)NC(=O)[C@H](CC(C)C)NC(=O)[C@@H](NC(=O)[C@@H]2CCCN2C(=O)CNC(=O)[C@H](C)N)CSSC[C@@H](C(=O)N2CCC[C@H]2C(=O)NCC(=O)O)NC(=O)[C@H](CCCNC(=N)N)NC(=O)[C@H](CC(=O)O)NC(=O)[C@@H]2CCCN2C(=O)[C@H](C)NC1=O [peptide 143] (H-AGPCLLLAPDRCPG-OH; disulfide 4-12)
[1]
  amount of peptide producing 50% inhibition of binding of ACA-6501 aPL antibody to tetravalent peptide ACA-6501/3B10: 0.9 µg

## CC[C@H](C)[C@@H]1NC(=O)[C@@H](NC(=O)[C@@H]2CCCN2C(=O)CNC(=S)Nc2ccc3c(c2)C(=O)OC32c3ccc(O)cc3Oc3cc(O)ccc32)CSSC[C@@H](C(=O)NCC(=O)O)NC(=O)[C@H](CCCNC(=N)N)NC(=O)[C@H](CC(=O)O)NC(=O)[C@H](CCCNC(=N)N)NC(=O)[C@H](C)NC(=O)[C@H](CC(C)C)NC(=O)[C@H](CC(C)C)NC1=O [CB2*-F, FITC-GPCILLARDRCG] ({FITC}-GPCILLARDRCG-OH; disulfide 3-11)
[5]; dbFP titration of FIG. 24, from Equation 1, not corrected for antibody bivalency
  Kd: 241 nM
[5]; dbFP, multiplied by 2 to correct for antibody bivalency
  Kd: 482 nM
[6]; from Equation 1, not corrected for antibody bivalency
  Kd: 256 nM
[6]; multiplied by 2 to correct for antibody bivalency
  Kd: 512 nM
[6]; displacement of CB2*-F from 6701 by slight excess of CB2*
  dissociation rate constant Koff: 0.0184 s⁻¹
[6]; from KD and Koff, after correcting for antibody bivalency
  association rate constant Kon: 36000 M⁻¹ s⁻¹

## CC(C)C[C@@H]1NC(=O)[C@H](CC(C)C)NC(=O)[C@H](CC(C)C)NC(=O)[C@@H](NC(=O)[C@@H]2CCCN2C(=O)CN)CSSC[C@@H](C(=O)N2CCC[C@H]2C(=O)NCC(=O)O)NC(=O)[C@H](CCCNC(=N)N)NC(=O)[C@H](CC(=O)O)NC(=O)[C@@H]2CCCN2C(=O)[C@H](C)NC1=O [peptide 142] (H-GPCLLLAPDRCPG-OH; disulfide 3-11)
[1]
  amount of peptide producing 50% inhibition of binding of ACA-6501 aPL antibody to tetravalent peptide ACA-6501/3B10: 0.7 µg

Reference: US20040009904A1, “APL immunoreactive peptides, conjugates thereof and methods of treatment for aPL antibody-mediated pathologies” (priority 1995, published 2004)
